Measurements from patent US8946426B2, “Substituted bicyclic heterocyclic compounds as gamma secretase modulators” (Janssen Pharmaceuticals, Inc., priority 2009, dated 2015).

Legend:
Aβ42 = experiment: Method 1: Aβ42 sandwich ELISA in supernatant of SKNBE2 cells carrying APP 695-wild type (Tables 7a, 7b); format: cell-based
Procedure: (§1) Screening was carried out using SKNBE2 cells carrying the APP 695-wild type, grown in Dulbecco's Modified Eagle's Medium/Nutrient mixture F-12 (DMEM/NUT-mix F-12) (HAM) provided by Gibco (cat no. 31330-38) containing 5% Serum/Fe supplemented with 1% non-essential amino acids. Cells were grown to near confluency.
(§2) The screening was performed using the assay as described in Citron et al (1997) Nature Medicine 3: 67. Briefly, cells were plated in a 96-well plate at about 10^5 cells/ml one day prior to addition of compounds. Compounds were added to the cells in Ultraculture (Lonza, BE12-725F) supplemented with 1% glutamine (Invitrogen, 25030-024) for 18 Hours. The media were assayed by two sandwich ELISAs, for Aβ42 and Aβtotal. Toxicity of the compounds was assayed by WST-1 cell proliferation reagent (Roche, 1 644 807) according to the manufacturer's protocol.
To quantify the amount of Aβ42 in the cell supernatant, commercially available Enzyme-Linked-Immunosorbent-Assay (ELISA) kits were used (Innotest® β-Amyloid(1-42), Innogenetics N.V., Ghent, Belgium). The Aβ42 ELISA was performed essentially according to the manufacturer's protocol. Briefly, the standards (dilutions of synthetic Aβ1-42) were prepared in polypropylene Eppendorf with final concentrations of 8000 down to 3.9 pg/ml (½ dilution step). Samples, standards and blanks (100 μl) were added to the anti-Aβ42-coated plate supplied with the kit (the capture antibody selectively recognizes the C-terminal end of the antigen). The plate was allowed to incubate 3 H at 25° C. in order to allow formation of the antibody-amyloid complex. Following this incubation and subsequent wash steps a selective anti-Aβ-antibody conjugate (biotinylated 3D6) was added and incubated for a minimum of 1 Hour in order to allow formation of the antibody-Amyloid-antibody-complex. After incubation and appropriate wash steps, a Streptavidine-Peroxidase-Conjugate was added, followed 30 minutes later by an addition of 3,3′,5,5′-tetramethylbenzidine (TMB)/peroxide mixture, resulting in the conversion of the substrate into a coloured product. This reaction was stopped by the addition of sulfuric acid (0.9 N) and the colour intensity was measured by means of photometry with an ELISA-reader with a 450 nm filter.
(§3) To obtain the values reported in Table 7a, the sigmoidal dose response curves were analysed by computerised curve-fitting, with percent of inhibition plotted against compound concentration. A 4-parameter equation (model 205) in XLfit was used to determine the IC50. The top and the bottom of the curve were fixed to 100 and 0, respectively, and the hill slope was fixed to 1. The IC50 represents the concentration of a compound that is required for inhibiting a biological effect by 50% (Here, it is the concentration where Aβ peptide level is reduced by 50%).
(§4) To obtain the values reported in Table 7b, the data were calculated as percentage of the maximum amount of amyloid Beta 42 measured in the absence of the test compound. The sigmoidal dose response curves were analyzed using non-linear regression analysis with percentage of the control plotted against the log concentration of the compound. A 4-parameter equation was used to determine the IC50. The values reported in Table 7b are averaged IC50 values.

Aβtotal = experiment: Method 1: Aβtotal sandwich ELISA in supernatant of SKNBE2 cells carrying APP 695-wild type (Tables 7a, 7b); format: cell-based
Procedure: as §1, §2
To quantify the amount of Aβtotal in the cell supernatant, samples and standards were added to a 6E10-coated plate. The plate was allowed to incubate overnight at 4° C. in order to allow formation of the antibody-amyloid complex. Following this incubation and subsequent wash steps a selective anti-Aβ-antibody conjugate (biotinylated 4G8) was added and incubated for a minimum of 1 Hour in order to allow formation of the antibody-Amyloid-antibody-complex. After incubation and appropriate wash steps, a Streptavidine-Peroxidase-Conjugate was added, followed 30 minutes later by an addition of Quanta Blu fluorogenic peroxidase substrate according to the manufacturer's instructions (Pierce Corp., Rockford, Ill.).
as §3, §4

[1] = Table 7a, SKNBE2 cells, compounds 18 h, XLfit 4-parameter fit of percent inhibition, top/bottom fixed to 100/0, hill slope 1
[2] = Table 7b, averaged IC50, non-linear regression of percentage of control vs log concentration, 4-parameter equation
[3] = Homo sapiens, SKNBE2, Table 7b, averaged IC50, non-linear regression of percentage of control vs log concentration, 4-parameter equation
[4] = Homo sapiens, Table 7a, SKNBE2 cells, compounds 18 h, XLfit 4-parameter fit of percent inhibition, top/bottom fixed to 100/0, hill slope 1

Row | Compound | IC50 (Aβ42; [2]) | IC50 (Aβtotal; [2]) | further results
1 | COc1cccc(-c2nc3c(Nc4ccc(-c5ocnc5C)c(OC)c4)cccc3n2C)c1 [Compound 20] | 17 nM | > 1000 nM | IC50 (Aβ42; [1]): 13 nM; IC50 (Aβtotal; [1]): > 1000 nM
2 | Cc1ncoc1-c1ccc(Nc2cccn3cc(C4CCOCC4)nc23)cn1 [Compound 154] | 2040 nM | > 3000 nM | 
3 | COc1cccc(-c2nc3c(Nc4ccc(-c5sc(C)nc5C)c(OC)c4)cccn3c2C)c1 [Compound 5] |  |  | IC50 (Aβ42; [3]): 78 nM; IC50 (Aβ42; [4]): 63 nM; IC50 (Aβtotal; [3]): > 3000 nM; IC50 (Aβtotal; [4]): > 3000 nM
4 | Cc1ncc(-c2ccc(Nc3cccc4c3nc(-c3ccc(F)cc3)n4C(C)C)cc2)o1 [Compound 19] | 28 nM | > 3000 nM | IC50 (Aβ42; [1]): 49 nM; IC50 (Aβtotal; [1]): > 3000 nM
5 | Cc1nc(C)c(-c2ccc(Nc3cccc4c3nc(-c3ccc(F)cc3)n4C)cc2)o1 [Compound 83] | 59 nM | > 3000 nM | 
6 | Cc1ncc(-c2ccc(Nc3cccn4cc(-c5ccc(F)cc5)nc34)cc2)o1 [Compound 42] | 123 nM | > 3000 nM | IC50 (Aβ42; [1]): 96 nM; IC50 (Aβtotal; [1]): > 3000 nM
7 | Cc1ncc(-c2ccc(Nc3cccc4c3nc(-c3ccc(F)cc3)n4C(C)C)nc2)o1 [Compound 15] |  |  | IC50 (Aβ42; [3]): 100 nM; IC50 (Aβtotal; [3]): > 3000 nM
8 | Cc1ncc(-c2ccc(Nc3cccc4c3nc(-c3ccc(F)cc3)n4C(C)C)cc2F)o1 [Compound 28] | 110 nM | > 3000 nM | 
9 | COc1cc(Nc2cc(F)cc3c2nc(N(C)CC(C)C)n3C)ccc1-c1cnc(C)o1 [Compound 108] | 132 nM | > 10000 nM | 
10 | COc1cccc(-c2nc3c(Nc4ccc(-c5cnc(C)s5)c(OC)c4)cccn3c2C)c1 [Compound 4] |  |  | IC50 (Aβ42; [3]): 63 nM; IC50 (Aβ42; [4]): 67 nM; IC50 (Aβtotal; [3]): > 3000 nM; IC50 (Aβtotal; [4]): > 3000 nM
11 | Cc1ncc(-c2ccc(Nc3cncc4c3nc(-c3ccc(F)cc3)n4C)cn2)o1 [Compound 200] | 295 nM | > 3000 nM | 
12 | Cc1nc2c(Nc3ccc(-c4cnc(C(C)C)o4)cc3)cccn2c1C [Compound 180] | > 3000 nM | > 3000 nM | 
13 | COCCCc1c(-c2ccccc2C(F)(F)F)nc2c(Nc3ccc(-c4cnc(C)o4)c(OC)c3)cccn12 [Compound 169] |  |  | IC50 (Aβ42; [3]): 45 nM; IC50 (Aβtotal; [3]): > 3000 nM
14 | COc1cc(Nc2cccn3c(C)c(-c4ccccc4)nc23)ccc1-c1oc(C)nc1C [Compound 8] |  |  | IC50 (Aβ42; [3]): 282 nM; IC50 (Aβ42; [4]): 275 nM; IC50 (Aβtotal; [3]): > 5000 nM; IC50 (Aβtotal; [4]): > 5000 nM
15 | Cc1ncc(-c2ccc(Nc3cccc4c3nc(-c3ccc(F)cc3)n4C)cn2)s1 [Compound 76] | 182 nM | > 3000 nM | 
16 | Cc1ncoc1-c1ccc(Nc2cccc3c2nc(COc2ccccc2)n3C)cn1 [Compound 61] | 1070 nM | > 3000 nM | 
17 | COc1cc(Nc2cccc3c2nc(-c2ccc(F)cc2)n3C)ccc1-c1ccnn1C [Compound 9] |  |  | IC50 (Aβ42; [3]): 240 nM; IC50 (Aβ42; [4]): 399 nM; IC50 (Aβtotal; [3]): > 3000 nM; IC50 (Aβtotal; [4]): > 3000 nM
18 | Cc1ncoc1-c1ccc(Nc2cccc3c2nc(-c2cccc(Cl)c2)n3C)nc1 [Compound 32] | 282 nM | > 10000 nM | IC50 (Aβ42; [1]): 235 nM; IC50 (Aβtotal; [1]): > 10000 nM
19 | Cc1ncc(-c2ccc(Nc3cccn4cc(C5CC5)nc34)cc2)o1 [Compound 166] | 741 nM | > 3000 nM | 
20 | Cc1ncoc1-c1ccc(Nc2cccc3c2nc(-c2ccc(F)cc2)n3C)cc1 [Compound 124] | 51 nM | > 3000 nM | 
21 | COc1cc(Nc2nccc3c2nc(-c2ccc(F)cc2)n3C(C)C)ccc1-c1cnc(C)o1 [Compound 27] | 676 nM | > 3000 nM | 
22 | Cn1nccc1-c1ccc(Nc2cccc3c2nc(-c2ccc(F)cc2)n3C)nc1 [Compound 71] | 1950 nM | > 3000 nM | 
23 | Cc1ncc(-c2ccc(Nc3cccn4cc(-c5ccccc5C)nc34)cc2)o1 [Compound 39] | 51 nM | > 3000 nM | IC50 (Aβ42; [1]): 53 nM; IC50 (Aβtotal; [1]): > 3000 nM
24 | Cc1ncoc1-c1ccc(Nc2cccc3c2nc(-c2cccc(Cl)c2)n3C(C)C)cn1 [Compound 112] | 28 nM | > 1000 nM | 

Further lines, with some results ahead:

Row | IC50 (Aβ42; [2]) | IC50 (Aβtotal; [2]) | Compound | further results
25 | 132 nM | > 10000 nM | COc1cc(Nc2cccn3cc(-c4cc(F)ccc4C)nc23)ccc1-c1cnc(C)o1 [Compound 48] | 
26 | 676 nM | > 3000 nM | COc1cc(Nc2cc(C(F)(F)F)nn3cc(C)nc23)ccc1-c1ocnc1C [Compound 196] | 
27 | 110 nM | > 3000 nM | Cc1ncc(-c2ccc(Nc3cccn4cc(-c5ccc(F)cc5C)nc34)cc2)o1 [Compound 46] | 
28 | 20 nM | > 3000 nM | COc1cccc(-c2nc3c(Nc4ccc(-c5ocnc5C)c(OC)c4)nc(C)cc3n2C)c1 [Compound 121] | 
29 | 55 nM | > 3000 nM | COc1cc(Nc2cccc3c2nc(-c2ccc(F)cc2)n3C)ccc1-c1oc(C)nc1C [Compound 24] | IC50 (Aβ42; [1]): 56 nM; IC50 (Aβtotal; [1]): > 3000 nM
30 | 9770 nM | > 30000 nM | COc1cc(Nc2cc(C(F)(F)F)cn3cc(C(=O)N(C)C)nc23)ccc1-c1ocnc1C [Compound 143] | 
31 | 83 nM | > 3000 nM | Cc1ncoc1-c1ccc(Nc2cc(C#N)cc3c2nc(-c2ccc(F)cc2)n3C)cn1 [Compound 110] | 
32 | 437 nM | 8130 nM | COc1cc(Nc2cc(CN)cn3cc(-c4ccc(F)cc4C)nc23)ccc1-c1ocnc1C [Compound 150] | 
33 | 166 nM | > 3000 nM | COc1cc(Nc2cccn3cc(-c4ccccc4C)nc23)ccc1-c1cnc(C)s1 [Compound 52] | 
34 | 1070 nM | > 10000 nM | Cc1ncc(-c2ccc(Nc3nccn4cc(-c5ccc(F)cc5C)nc34)cc2)o1 [Compound 57] | 
35 | 23 nM | > 3000 nM | COc1cccc(-c2nc3c(Nc4ccc(-c5ocnc5C)cc4)cccn3c2C)c1 [Compound 152] | 
36 | 47 nM | > 3000 nM | COc1cc(Nc2cc(C)cn3cc(-c4ccc(F)cc4C)nc23)ccc1-c1ocnc1C [Compound 149] | 
37 | 83 nM | > 3000 nM | COc1cc(Nc2nc(C3CC3)cc3c2nc(-c2ccc(F)cc2)n3C)ccc1-c1cnc(C)o1 [Compound 94] | 
38 | 355 nM | > 30000 nM | COc1cc(Nc2cc(C#N)cn3cc(-c4ccc(F)cc4C)nc23)ccc1-c1ocnc1C [Compound 146] | 
